The text below walks through data of patent US20080249124A1, “WORTMANNIN-RAPALOG CONJUGATE AND USES THEREOF” (Wyeth, priority 2007, published 2008).

For series [1], the system named is U87MG (human glioblastoma) tumor. The series can be described thus: Xenograft tumor efficacy study. Type of series: in vivo. The settings on record: female nude mice; for tumor size versus control and single reference compounds: 15 mg/kg IV on day 0 and day 7, D5W vehicle; for tumor size versus mixture of reference compounds 1 and 2: 15 mg/kg IV on day 0 and day 7, mixture 10 mg/kg/5 mg/kg. The protocol:
Female nude mice at 10 weeks of age were inoculated subcutaneously on the flank with 200 μL U87MG (human glioblastoma) tumor cell suspension. U87MG cells were suspended in full growth media and were implanted at 10 million cells per mouse. Mice were staged when tumors reached approximately 200 mm^3 in sizes. Tumor bearing mice at staging (day 0) were randomized into treatment groups (n=10). The conjugates described herein were formulated in D5W vehicle (glucose-water) and were dosed IV on day 0 and day 7. See, Table 6.
The growth of tumors was monitored twice a week for the duration of the experiment. Tumor size was measured using sliding vernier calipers, and the tumor mass was calculated using the formula (length×Width^2)/2.

For a further series, the system named is tumor xenografts. The settings on record: animals; cited from earlier work.
Another series relates to PI3K. As to conditions: cited from earlier work.
Another series concerns C3H mammary model. The settings on record: cited from earlier work.

Regarding “Diallylamine Adduct of 42,17′-linked 41-Desmethoxyrapamycin-Suberate-Wortmannin Conjugate [Example 2a]”, the “tumor size versus control and single reference compounds” value in series [1] is listed as “smaller tumors than tumors treated with control or with reference compound 1 or reference compound”.
With `COC[C@H]1OC(=O)c2coc3c2[C@@]1(C)C1=C(C3=O)[C@@H]2CCC(=O)[C@@]2(C)C[C@H]1OC(C)=O` [Wortmannin], the “antitumor activity against tumor xenografts” value with tumor xenografts was “antitumor activity against tumor xenografts in animals”. In addition, the PI3K inhibition entry in the series on PI3K is recorded as “irreversible inhibitor, at nanomolar concentrations”.
Take `COC[C@H]1OC(=O)/C(=C/N(C)CCCN(C)C)C2=C(O)C(=O)C3=C([C@H](OC(C)=O)C[C@@]4(C)C3CC[C@@H]4OC(=O)CCCCCCC(=O)O[C@H]3CC[C@H](C[C@@H](C)[C@@H]4CC(=O)[C@H](C)/C=C(\C)[C@@H](O)[C@@H](OC)C(=O)[C@H](C)C[C@H](C)/C=C/C=C/C=C(\C)[C@@H](OC)C[C@@H]5CC[C@@H](C)[C@@](O)(O5)C(=O)C(=O)N5CCCC[C@H]5C(=O)O4)CC3)[C@]21C` (stereo partly shown) [Example 2b, N,N,N′-trimethyl-1,3-propanediamine adduct of 42,17′-linked 41-Desmethoxyrapamycin-Suberate-Wortmannin conjugate]: in series [1], the “tumor size versus control and single reference compounds” value is “smaller tumors than tumors treated with control or with reference compound 1 or reference compound”; the “tumor size versus mixture of reference compounds 1 and 2” value is “tumors of comparable size to that achieved with a mixture of reference compounds 1 and 2”.
Take “diallylamine adduct of 17-hydroxywortmannin [compound 2]”: the “tumor size versus mixture of reference compounds 1 and 2” value in series [1] is “tumors of comparable size to that achieved with a mixture of reference compounds 1 and 2”.
`COCC1OC(=O)c2coc3c2C1(C)C1=C(C3=O)C2CCC(O)C2(C)CC1OC(C)=O` (stereo not drawn) [17β-Hydroxywortmannin]: the “increase in activity relative to wortmannin” value in the series on PI3K (PI3K) is recorded as 10 fold. Besides, the IC50 (usually the concentration needed to halve the response being measured) with PI3K was 0.5 nM. Further, in the series on C3H mammary model (dose of 0.5 mg/kg), the anti-tumor activity entry was “no inhibition”. Besides, the toxicity entry in the series with C3H mammary model (dose of 1.0 mg/kg) was “toxicity”.
